Assay results reported in ChEMBL document CHEMBL1201862, “PubChem BioAssay data set” (2004).
The source made the active and inactive calls.

Experiments:
[1] = target: T1, Type-1 angiotensin II receptor (Homo sapiens, UniProt P30556); assay: AT1 receptor antagonists, dose response, selectivity assay for APJ receptor antagonist project, cell-based, uHTS hits (AID 463214); format: functional;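 also: antagonist potency against angiotensin II stimulated AT1 response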
T1 sequence (P30556 whole entry): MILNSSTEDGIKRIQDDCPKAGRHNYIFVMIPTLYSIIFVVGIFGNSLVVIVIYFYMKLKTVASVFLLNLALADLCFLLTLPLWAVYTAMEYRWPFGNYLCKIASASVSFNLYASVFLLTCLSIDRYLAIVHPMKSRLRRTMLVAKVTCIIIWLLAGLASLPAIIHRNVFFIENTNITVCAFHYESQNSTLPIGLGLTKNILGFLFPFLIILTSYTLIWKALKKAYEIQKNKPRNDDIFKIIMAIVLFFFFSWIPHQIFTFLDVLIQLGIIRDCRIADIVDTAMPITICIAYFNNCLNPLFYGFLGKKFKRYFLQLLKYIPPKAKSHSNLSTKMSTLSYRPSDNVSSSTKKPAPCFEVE

Beta-galactosidase = Beta-galactosidase (Escherichia coli, UniProt Q8VNN2); assay: PubChem AID 485352; format: functional
Chain of Beta-galactosidase (Q8VNN2 whole entry): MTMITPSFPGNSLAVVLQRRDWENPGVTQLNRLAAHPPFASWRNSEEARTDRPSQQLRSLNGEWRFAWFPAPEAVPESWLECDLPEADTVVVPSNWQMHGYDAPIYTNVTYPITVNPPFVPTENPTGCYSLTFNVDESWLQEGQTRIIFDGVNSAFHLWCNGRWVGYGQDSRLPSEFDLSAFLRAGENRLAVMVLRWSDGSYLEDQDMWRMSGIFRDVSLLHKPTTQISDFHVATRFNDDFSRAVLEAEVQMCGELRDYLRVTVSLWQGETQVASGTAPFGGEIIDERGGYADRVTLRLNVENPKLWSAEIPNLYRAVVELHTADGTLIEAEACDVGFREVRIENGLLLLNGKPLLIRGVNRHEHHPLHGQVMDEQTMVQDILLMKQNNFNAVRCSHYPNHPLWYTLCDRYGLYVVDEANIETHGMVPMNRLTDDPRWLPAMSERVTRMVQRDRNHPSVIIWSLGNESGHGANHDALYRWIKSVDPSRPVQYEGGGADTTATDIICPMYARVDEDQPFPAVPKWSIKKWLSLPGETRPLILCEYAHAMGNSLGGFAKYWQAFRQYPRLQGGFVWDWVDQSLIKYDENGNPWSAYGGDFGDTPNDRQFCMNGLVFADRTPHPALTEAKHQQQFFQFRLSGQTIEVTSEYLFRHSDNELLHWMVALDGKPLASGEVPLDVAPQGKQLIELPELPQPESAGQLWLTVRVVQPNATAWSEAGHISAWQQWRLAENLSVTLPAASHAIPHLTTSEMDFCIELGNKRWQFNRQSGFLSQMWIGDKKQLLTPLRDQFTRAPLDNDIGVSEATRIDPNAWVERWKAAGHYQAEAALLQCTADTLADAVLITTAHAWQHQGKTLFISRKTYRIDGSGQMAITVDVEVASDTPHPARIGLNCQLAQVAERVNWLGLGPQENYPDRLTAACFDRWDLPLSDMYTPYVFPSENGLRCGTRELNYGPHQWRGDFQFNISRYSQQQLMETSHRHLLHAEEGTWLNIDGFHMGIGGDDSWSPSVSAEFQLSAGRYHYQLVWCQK

HEK293 [2] = assay: cells; format: functional, cell-based; details: Homo sapiens
[3] = target: T2, Nuclear receptor subfamily 0 group B member 1 (Homo sapiens, UniProt P51843); assay: Luminescence-based cell-based high throughput dose response assay for inhibitors of the orphan nuclear receptor subfamily 0, group B, member 1 (DAX1; NR0B1). [Related pubchem assays (depositor defined):AID504766, AID504790]; format: functional
T2 sequence (P51843 whole entry): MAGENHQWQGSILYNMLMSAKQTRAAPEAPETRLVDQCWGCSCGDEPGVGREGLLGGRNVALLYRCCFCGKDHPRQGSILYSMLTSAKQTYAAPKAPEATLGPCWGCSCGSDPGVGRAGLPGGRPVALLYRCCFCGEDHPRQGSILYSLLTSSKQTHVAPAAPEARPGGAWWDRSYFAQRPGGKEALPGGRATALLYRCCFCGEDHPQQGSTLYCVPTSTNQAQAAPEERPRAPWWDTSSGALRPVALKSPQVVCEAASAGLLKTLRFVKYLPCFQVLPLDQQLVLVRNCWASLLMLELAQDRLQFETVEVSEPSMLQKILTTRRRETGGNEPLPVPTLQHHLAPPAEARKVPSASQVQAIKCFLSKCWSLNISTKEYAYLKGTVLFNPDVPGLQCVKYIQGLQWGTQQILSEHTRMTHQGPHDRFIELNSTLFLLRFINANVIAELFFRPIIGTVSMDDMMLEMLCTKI

H4 = assay: Luminescence Cell-Based Dose Response HTS to Identify Activators of 5'UTR Stem-Loop Driven Prion Protein mRNA Translation in H4 Neuroglioblastoma Cells. [Related pubchem assays: 1829 (Project Summary), 1814 (Primary HTS)]; format: functional; details: Homo sapiens
[4] = Luminescence Cell-Based Dose Confirmation HTS to Identify Activators of 5'UTR Stem-Loop Driven Alpha-Synuclein mRNA Translation in H4 Neuroglioblastoma Cells. [Related pubchem assays: 1829 (Project Summary), 1814 (Primary HTS)]; format: functional
[5] = Luminescence Cell-Based Dose Response HTS to Identify Activators of Luciferase Translation or Activity in H4 […] Cells. [Related pubchem assays: 1829 (Project Summary), 1814 (Primary HTS)]; format: functional
Vero [6] = assay: cells; format: functional, cell-based; details: Chlorocebus sabaeus
HEK293 [7] = assay: inhibitors of LMP1-driven NF-kB reporter, dose response, cell-based, HEK293, luciferase, cherry-pick (AID 588343); format: functional; details: Homo sapiens
[8] = control 3'UTR Renilla luciferase suppression, dose response, counter-screen for Shn3 inhibitor project, cell-based, Clone20-Shn3RL, cherry-picked (AID 624133); format: functional
[9] = Shn3 3'UTR reporter inhibitors, dose response, cell-based, Clone20 osteoblasts, firefly luciferase, cherry-picked (AID 624132); format: functional;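 also: firefly luciferase luminescence from reporter carrying the Shn3 3'UTR in osteoblasts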
[10] = HepG2 cell cytotoxicity, dose response, cytotoxicity control for Shn3 inhibitor project, CellTiter-Glo, cherry-picked (AID 624134); format: functional, cell-based
Vero [11] = assay: cells; format: functional; details: Chlorocebus sabaeus
[12] = cytotoxicity in HEK-293T NF-kB-Luc cells, dose response, cytotoxicity control for B/T-cell NF-kB inhibitor project, cell-based, uHTS hits (AID 489019); format: functional;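 also: IC50 reflects cytotoxicity as loss of cell viability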
[13] = microbe, parasite or virus in culture; format: functional; details: Mycobacterium tuberculosis
Protein RecA = target: T3, Protein RecA (Mycobacterium tuberculosis, UniProt P9WHJ3); assay: Fluorescence Cell-Free Homogeneous Dose Retest to Identify Inhibitors of RecA-Intein Splicing Activity. [Related pubchem assays (depositor defined):AID2097, AID2223, AID489010, AID492950]; format: functional
T3 sequence (P9WHJ3 whole entry): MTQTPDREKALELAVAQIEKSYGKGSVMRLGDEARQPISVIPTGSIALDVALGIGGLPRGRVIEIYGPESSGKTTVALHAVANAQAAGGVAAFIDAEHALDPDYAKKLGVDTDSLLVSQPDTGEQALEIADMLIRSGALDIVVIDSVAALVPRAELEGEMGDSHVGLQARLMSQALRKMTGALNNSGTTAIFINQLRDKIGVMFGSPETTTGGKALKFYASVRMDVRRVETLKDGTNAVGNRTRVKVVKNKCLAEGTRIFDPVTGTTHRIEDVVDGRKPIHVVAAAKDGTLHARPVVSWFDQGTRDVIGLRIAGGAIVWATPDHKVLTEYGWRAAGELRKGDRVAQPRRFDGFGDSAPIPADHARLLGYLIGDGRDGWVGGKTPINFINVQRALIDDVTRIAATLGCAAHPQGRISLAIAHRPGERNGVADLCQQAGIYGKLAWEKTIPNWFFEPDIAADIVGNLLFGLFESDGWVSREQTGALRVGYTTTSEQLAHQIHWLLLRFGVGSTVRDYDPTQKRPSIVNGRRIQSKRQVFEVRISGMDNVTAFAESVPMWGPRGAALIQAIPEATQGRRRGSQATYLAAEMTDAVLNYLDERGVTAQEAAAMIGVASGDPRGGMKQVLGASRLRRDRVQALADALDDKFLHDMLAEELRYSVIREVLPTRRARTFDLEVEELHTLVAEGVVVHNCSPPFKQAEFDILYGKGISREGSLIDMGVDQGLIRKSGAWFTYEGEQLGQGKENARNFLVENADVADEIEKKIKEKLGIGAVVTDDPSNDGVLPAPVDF

[14] = target: T4, Heat shock factor protein 1 (Mus musculus, UniProt P38532); assay: inhibition of MG132-induced HSE-luciferase signal, confirmation, cell-based, NIH3T3, luminescence, dose retest (AID 2382); format: functional;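 also: NIH3T3 fibroblasts with HSF1-driven luciferase reporter stressed by proteasome inhibitor MG132; luminescence from HSF1-driven luciferase expression after 8 hours of MG132 stress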
T4 sequence (P38532 whole entry): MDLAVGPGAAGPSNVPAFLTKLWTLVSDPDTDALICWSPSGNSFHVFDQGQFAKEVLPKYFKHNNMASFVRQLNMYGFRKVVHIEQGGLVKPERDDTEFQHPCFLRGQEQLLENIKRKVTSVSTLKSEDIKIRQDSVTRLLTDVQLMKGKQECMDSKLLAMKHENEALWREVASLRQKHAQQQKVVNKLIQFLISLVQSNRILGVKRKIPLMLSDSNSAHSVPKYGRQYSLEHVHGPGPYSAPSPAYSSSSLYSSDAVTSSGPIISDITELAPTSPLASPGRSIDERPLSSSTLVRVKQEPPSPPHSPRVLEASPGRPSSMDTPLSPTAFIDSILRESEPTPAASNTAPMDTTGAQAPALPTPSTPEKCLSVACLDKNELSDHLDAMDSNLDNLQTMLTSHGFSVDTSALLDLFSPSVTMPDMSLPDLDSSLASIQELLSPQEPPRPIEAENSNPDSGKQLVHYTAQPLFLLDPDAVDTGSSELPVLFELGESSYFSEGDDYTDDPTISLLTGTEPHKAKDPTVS

[15] = target: T5, Replicative DNA helicase DnaB (Mycobacterium tuberculosis, UniProt P9WMR3); assay: DnaB intein splicing inhibitors, dose response, biochemical, cell-free fluorescence (AID 449749); format: functional
T5 sequence (P9WMR3 whole entry): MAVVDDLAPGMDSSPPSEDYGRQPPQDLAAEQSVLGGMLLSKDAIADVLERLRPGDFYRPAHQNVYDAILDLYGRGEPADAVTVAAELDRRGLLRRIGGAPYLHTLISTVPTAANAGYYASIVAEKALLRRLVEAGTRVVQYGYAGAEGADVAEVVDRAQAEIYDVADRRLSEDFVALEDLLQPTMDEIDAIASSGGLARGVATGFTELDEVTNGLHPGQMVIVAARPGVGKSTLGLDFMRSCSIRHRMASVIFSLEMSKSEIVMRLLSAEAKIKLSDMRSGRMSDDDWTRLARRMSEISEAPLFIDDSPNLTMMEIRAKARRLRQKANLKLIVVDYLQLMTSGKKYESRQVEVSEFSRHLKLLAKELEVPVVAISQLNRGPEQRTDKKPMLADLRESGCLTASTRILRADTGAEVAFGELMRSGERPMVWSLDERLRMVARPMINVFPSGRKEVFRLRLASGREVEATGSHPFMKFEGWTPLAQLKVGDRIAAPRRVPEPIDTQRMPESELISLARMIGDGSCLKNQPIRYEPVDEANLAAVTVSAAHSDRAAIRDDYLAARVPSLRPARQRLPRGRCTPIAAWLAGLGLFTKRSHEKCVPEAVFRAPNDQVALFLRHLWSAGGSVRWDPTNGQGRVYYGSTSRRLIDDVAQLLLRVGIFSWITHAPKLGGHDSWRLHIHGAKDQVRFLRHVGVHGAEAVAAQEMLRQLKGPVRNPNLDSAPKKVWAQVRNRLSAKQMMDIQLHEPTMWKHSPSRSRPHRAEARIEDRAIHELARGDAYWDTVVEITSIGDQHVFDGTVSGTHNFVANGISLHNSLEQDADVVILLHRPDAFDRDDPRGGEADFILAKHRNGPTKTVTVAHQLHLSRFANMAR

Jurkat = assay: antigen receptor-induced NF-kB inhibitors, dose response, Jurkat, luciferase reporter, luminescence, B- and T-cell (AID 489004); format: functional, cell-based; details: Homo sapiens;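 also: NF-kB luciferase reporter Jurkat cells stimulated with PMA plus ionomycin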

With `O=C(Cc1ccc(F)cc1)OCC(=O)c1cc2ccccc2o1` the IC50 [1] was 23.9 µM (not active) and the EC50 (Beta-galactosidase) was > 40 µM (inactive).

For `CS(=O)(=O)N1CCc2cc(C(=O)Nc3ccccc3Cl)ccc21`, the IC50 (HEK293 [2]) was > 67.5 µM (inactive) and the IC50 [3] was > 67.5 µM (inactive).

With `CN1CCN(C(=S)c2ccc(-c3cccc([N+](=O)[O-])c3)o2)CC1` the EC50 (H4) was 2.4 µM (active), the EC50 [4] was 0.141 µM (active) and the IC50 (HEK293 [2]) was > 67.6 µM (inactive). The EC50 [5] was 0.117 µM (active) and the IC50 [3] was > 67.6 µM (inactive).

With `COc1ccc(C(=O)NC2CCCc3c2cnn3-c2cccc(C)c2C)c(OC)n1` (configuration not stated) the IC50 (Vero [6]) was 3.8 µM (active), the AC50 (HEK293 [7]) was 17.5 µM (active) and the AC50 [8] was 3.27 µM (active). For the same compound, the AC50 [9] was 1.96 µM (active), the AC50 [10] was > 70 µM (inactive) and the CC50 (Vero [11]) was > 25 µM (active).

With `O=C(CCl)N1CCCC1c1ccc2c(c1)OCCO2` (configuration not stated) the IC50 [12] was > 80 µM (inactive), the EC50 (H4) was > 120 µM (not active) and the EC50 [4] was 29.6 µM (active). For the same compound, the CC50 [13] was 11.6 µM (active), the EC50 [5] was 14 µM (active) and the EC50 (Protein RecA) was > 380 µM (inconclusive). The EC50 [14] was 1.14 µM (active), the AC50 [15] was 12.2 µM (active) and the IC50 (Jurkat) was 1.39 µM (active).

In the case of `Nc1c(-c2ccc(Cl)cc2)cnc2c(-c3ccccc3)cnn12`, the IC50 (HEK293 [2]) is reported as > 67.5 µM (inactive) and the IC50 [3] is reported as > 67.5 µM (inactive).

In the case of `O=C1Nc2ccccc2C1=Nc1ccc(F)cc1`, the IC50 [1] is reported as 24.4 µM (not active) and the EC50 (Beta-galactosidase) is reported as > 40 µM (inactive).

With `c1ccc2c(c1)ccc1[nH]c3c(c12)CCCC3` the IC50 (Vero [6]) was 3.39 µM (active) and the CC50 (Vero [11]) was > 25 µM (active).

For `O=C(C=Cc1ccccc1)c1cnc2ccccc2c1O`, the IC50 (Vero [6]) was > 25 µM (active) and the CC50 (Vero [11]) was 11 µM (active).
